Reference: patent US11629329B2, “Bioink compositions and methods of preparing and using the same” (Wake Forest University Health Sciences, priority 2017, dated 2023)

Key:
HCT116 = experiment: Short term 5-FU drug study on organoids (MTS, live/dead ratio); type: cell-based; settings: drug treated organoids vs control
Method: Three bioink formulations (“HA-collagen bioink”) were prepared and the viscoelastic behavior as well as cellular behavior within the material was quantified. The HA-collagen bioinks were formulated in three concentrations: 1:2, 1:3, and 1:4 (Heprasil® from Hystem-HP kit: methacrylated collagen type-1 from Advanced Biomatrix). Collagen was prepared as instructed by Advanced Biomatrix at 6 mg/mL and Heprasil® was prepared to 1% w/v with 0.1% photointiator in DiH2O and warmed to 37° C. Bioink formulations underwent rheological, cell viability, and 3D bioprinting testing conducted on the BioBots 1 device. As a comparison, tests were performed using the a Hystem-HP kit (thiolated hyaluronic acid and gelatin) made with 0.1% photointiator in DiH2O. Rheology was performed to determine shear elastic moduli G′ and 3D bioprinting was utilized to test printability of each material. Organoids were formed in 10 μL drops of bioink with […] per organoid, containing BXP3C, HCT116, Lx2, or pfHSC cell lines. Live/dead staining and picrosirus red collagen bundling analysis was performed on Lx2 and pfHSC organoids to assess viability and micro-architecture formation. A short term 5-Fluorouracil (5-FU) drug study was also conducted on HCT116 to show drug efficacy invariance between the Hystem-HP kit and 1:3 formulated bioink. […]

liver organoids [1] = experiment: Acetyl-para-aminophenol toxicity and NAC rescue in liver organoids (live/dead, albumin, alpha-GST); type: cell-based, human
Method: Drugs were dissolved in HCM media to reach the desired concentrations. […] Viability of the liver organoids was assessed using live/dead assay on day 14; albumin and alpha GST production were quantified from media collected on days 4, 7, 10, and 14, as described above.

liver organoids [2] = experiment: Recalled drug study on liver organoids (Cell-Titer Glo viability, live/dead); type: cell-based, human; settings: for EC50: Homo sapiens, liver organoids, 48 hours, read-out: half-maximal effective concentration (EC50), analysis of cell death
Method: (§1) Cryopreserved primary human hepatocytes were thawed according to manufacturer's protocol and the cells were directly used in experiments. LX2 hepatic stellate cells were trypsinized with 0.05% of trypsin (Hyclone) and counted. Forty thousand human hepatocytes and ten thousand LX2 hepatic stellate cells were suspended in 10 μl of formulation collagen gel (collagen, hyaluronic acid, and fibronectin) or without fibronectin for the formation of liver organoids. The organoids were engineered in an identical method to cell line organoid formation described above, except 24-well plates (Corning) were employed. The wells were filled with 2 mL of HCM media (Triangle Research Labs), which was replenished after collecting media aliquots for further analysis on day 4, 7 and 10 of the experiment. The organoids were cultured for 14 days.
The hepatoxic drugs bromfenac sodium, troglitazone and tienilic acid, recalled by the FDA, were chosen for this study.^12, 32 All the compounds were purchased from Sigma-Aldrich. Drugs were dissolved in DMSO (dimethyl sulfoxide) for stock concentrations of 100 mM. Concentrations of 1 μM, 10 μm, 100 μM, and 1000 μM were used for bromfenac sodium and tienilic acid. Concentrations of 1 μm, 10 μM, and 100 μM were used for troglitazone. The drug study was conducted for 48 hours in a 24 well plate at 37° C. with 5% CO2; each well in the plate containing one liver organoid in a 2 mL of media (control) or media with drug dissolved at the concentrations mentioned above (n≥6). The response of the liver organoids was assessed using Cell-Titer Glo Luminescent Cell Viability assay (Promega) prepared according to manufacturer's protocol. The results were quantified using the Veritas Microplate Luminometer setup according to manufacturer's instructions (Turner Bio Systems, Promega). Each condition was also subjected to live/dead staining (Thermo Fisher). Stained organoids were imaged using macro-confocal microscopy (Leica TCS LSI, Leica Microsystems).

liver organoids [3] = experiment: cells; type: cell-based, human; settings: 48 hours; for EC50: liver organoids, read-out: half-maximal effective concentration (EC50), analysis of cell death
Method: as §1
The environmental toxins glyphosate, mercury chloride, and lead chloride were purchased from Sigma-Aldrich. Drugs were dissolved in diH2O for stock concentrations of 50 mM (glyphosate), 10 mM (mercury chloride), and 20 mM (lead chloride). Concentrations of 1 mM, 5 mM, 10 mM, and 20 mM were used for glyphosate. Concentrations of 10 μM, 20 μM, 50 μM, and 100 μM were used for mercury chloride. Concentrations of 1 mM, 2 mM, 5 mM, and 10 mM were used for lead chloride. The drug study was conducted for 48 hours (n=7) and liver organoids were assessed for viability with ATP assay and live/dead assay as described above.

pfHSCs = experiment: Cell adhesion and spreading behavior in bioink organoids with fibronectin; type: cell-based; settings: 16 μg per 10 μL construct
Method: Immobilization of fibronectin in the bioink was then verified by assessing cell adhesion and spreading behavior with pfHSCs. Fibronectin (16 μg per 10 μL construct) was added to collagen which was used to make organoids using the bioink with pfHSCs (3 million cells/mL). On days 1, 4, 7, and 10, organoids were removed from culture, fixed, and stained with phalloidin and DAPI.

HepG2 cells = experiment: Cancer organoid proliferation and viability in gel formulations, HepG2; type: cell-based, human; settings: days 4, 7, 10
Method: The cells were trypsinized with 0.05% of trypsin (Hyclone) and counted. […] We chose this cell density for cancer organoid formation based on the results obtained from 3D organoid research performed in our lab.^31 The gel- cell mixture was pipetted in a well of a 48-well plate (Corning, N.Y.) that was pre-coated with 200 μl of polydimethylsiloxane (PDMS; Sylgard 184 elastomer kit, Dow Corning, Midland, Mich.) prepared according to manufacturer's protocol. The organoids were then crosslinked with UV light (Dymax BlueWave 75, Torrington, Conn.) on a high-intensity setting for 3 seconds. The wells were filled with 500 μL of media, which was replenished on day 4 and day 7 of the experiment. The organoids were maintained in culture for 10 days.
Biocompatibility of the different gel formulations was assessed in human cancer cell and liver organoids on days 4, 7, and 10 (n=3) using a standard live/dead cell viability kit (Thermo Fisher, Waltham, Mass.) according to the manufacturer's recommendation. […] Proliferation of cells within the different organoids was evaluated on days 4, 7, and 10 (n=3) by quantification of mitochondrial metabolism with a CellTiter 96® Aqueous One Solution Cell Proliferation Assay kit (Promega, Madison, Wis.) according to the manufacturer's protocol. Absorbance was quantified on a Spectramax M5 plate reader (Molecular Devices, Sunnyvale, Calif.) at 490 nm.

liver organoids [4] = experiment: Liver organoids with and without fibronectin (live/dead, albumin, urea); type: cell-based
Method: as §1
Cell viability was determined by live/dead assays (Thermo Fisher) on day 7 and 14 using representative images and by quantification of biomarkers from media collected on days 4, 7, 10, and 14 (n=3): Alpha-Glutathione s-transferase (alpha-GST) is secreted by liver cells upon cell death. The secreted levels of alpha-GST by the organoids are quantified using a GST alpha assay kit (GS41, Oxford Biomedical Research; Rochester Hills, Mich.). Absorbance was read on a Spectramax M5 plate reader (Molecular Devices) at 450 nm for alpha-GST.
The secreted levels of albumin and urea of the liver organoids were quantified from media collected on days 4, 7, 10, and 14 (n=3) using a Human Albumin ELISA Kit (Abeam; Boston, Mass. ab108788) and Urea Assay Kit (Abcam, ab83362), respectively. Absorbance was read on a Spectramax M5 plate reader (Molecular Devices) at 450 nm for albumin and at 430 nm for urea.

[5] = system: LX2 hepatic stellate cells; experiment: Morphology of cells in HA-Collagen bioink with covalently bound laminin or fibronectin; type: cell-based; settings: 7 days, phalloidin and DAPI
Method: LX2 hepatic stellate cells were cultured within collagen or a HA-Collagen bioink with covalently bound laminin, fibronectin, or both. After 7 days, the constructs were fixed and stained with phalloidin to highlight the actin cytoskeleton of the cells and DAPI for nuclei. What is evident is that modulating laminin versus fibronectin changes the morphology and phenotype of the cells within the constructs. While not wishing to be bound to any particular theory, these changes are likely due to activation of different integrin receptors responsible for binding to collagen, laminin, and fibronectin cell adhesion motifs.

[6] = organoids containing fibronectin vs without

Compound: O=c1[nH]cc(F)c(=O)[nH]1 [5-FU, 5-Fluorouracil]
- metabolism, MTS assay (HCT116): lower metabolism
- ratio of dead cells (HCT116): larger ratio of dead cells

Compound: CC(=O)N[C@@H](CS)C(=O)O [NAC, N-Acetyl-L-cysteine]
- cell viability of liver organoids exposed to high-concentration APAP (liver organoids [1]; 10 mM APAP with 20 mM NAC): markedly improved cell viability
- albumin production (liver organoids [1]; APAP 10 mM co-incubated with NAC 20 mM, day 14): partially rescued albumin production
- alpha-GST production (liver organoids [1]; APAP 10 mM with NAC 20 mM, by day 14): noticeable decrease approaching control levels

Compound: Nc1c(CC(=O)O)cccc1C(=O)c1ccc(Br)cc1 [bromfenac sodium]
- EC50 (liver organoids [2]): 371 µM
- cell death, live/dead analysis (liver organoids [2]; at 1000 μM): near to complete cell death

Compound: O=C(O)CNCP(=O)(O)O [glyphosate]
- EC50 (liver organoids [3]; Homo sapiens): 4100 µM
- cell death, live/dead analysis (liver organoids [3]; at 20 mM): near to complete cell death

Compound: [Cl][Pb][Cl] [lead chloride]
- EC50 (liver organoids [3]): 970 µM

Compound: [Cl][Hg][Cl] [mercury chloride]
- EC50 (liver organoids [3]): 28.2 µM

Compound: O=C(O)COc1ccc(C(=O)c2cccs2)c(Cl)c1Cl [tienilic acid]
- EC50 (liver organoids [2]): 491 µM

Compound: Cc1c(C)c2c(c(C)c1O)CCC(C)(COc1ccc(CC3SC(=O)NC3=O)cc1)O2 (centres unmarked) [troglitazone]
- EC50 (liver organoids [2]): 6.9 µM

Compound: fibronectin
- cell elongation behavior earlier than in conditions without fibronectin (pfHSCs): 3 days
- proliferation of encapsulated cells in the organoids (HepG2 cells): facilitated the proliferation
- production of albumin (liver organoids [4]; [6]): significantly greater
- production of urea (liver organoids [4]; [6]): significantly greater
- cell viability, live/dead analysis (liver organoids [4]; with vs without fibronectin, 14 days): comparable cell viability
- morphology and phenotype of the cells [5]: mesenchymal

Compound: laminin
- morphology and phenotype of the cells [5]: epithelial nature
